Each block holds one molecule with its values, some of them ahead of it.
Key:
tomato fruits = settings: 2007, cited from earlier work; for ripening, lycopene synthesis and chlorophyll breakdown: AVG inhibits ethylene biosynthesis, 1-MCP inhibits ethylene response, ref Saltveit, 2005, Passam et al.; for drawbacks on fruit quality and maturation: in some cases, ref Passam et al.
From the text: Improving shelf life and nutritional quality of tomato fruits is difficult to achieve with the methods currently in use. Maintaining adequate storage conditions is expensive and might cause chilling injury if used improperly ([[…] et al., 2007]). Even though genetic modifications reducing gene expression of proteins involved in ethylene synthesis are possible in principle ([Abano and Buah, 2015]) these procedures are banned by law throughout Europe and have low acceptance among European consumers. Chemical methods such as application of AVG to inhibit ethylene biosynthesis or treatment with ...

[1] = system: Tomato fruits (Solanum lycopersicum L.) of the cultivar ‘Lyterno’; settings: in vivo
From the text: Tomato fruits (Solanum lycopersicum L.) of the cultivar ‘Lyterno’ (Rijk Zwaan, De Lier, Netherlands) were harvested at the maturity stage “green” (USDA; 2005) from tomato plants which where cultivated in a commercial-like greenhouse at the research station Campus Klein-Altendorf (University of Bonn, Germany). At the early development stages, the trusses were manually thinned to six fruits per truss, according to the common practice aiming standardized fruit size and quality. For the experiment, the last two fruits of the fourth truss, counted from the bottom, were chosen for evaluations. At the beginning of the experiment, […] showing similar color and size were divided into four treatments (n = 25 fruits per treatment). On each fruit, a transparent polyethylene film was placed at the equatorial zone to demark the four evaluation points of 2.8 cm diameter each.
The four treatments were as follows: (1) control; (2) NOP-1, 400 μM; (3) NOP-1, 1000 μM; (4) NOP-1, 2000 μM. The NOP-1 peptide (GenScript, Piscataway, NJ, United States) was dissolved in 5 ml deionized water. On each fruit, a total of 200 microdroplets (0.5 μL each) of the peptide solution were gently deposited (50 micro droplets on each marked area of the tomato fruit) with a Hamilton microdispenser (Hamilton Bonaduz AG, Bonaduz, Switzerland). […]

[2] = target: tomato ethylene receptor LeETR4 (tomato (Solanum lycopersicum)) (UniProt Q9XET8); assay: MST; 100 nM receptor labeled with Alexa Fluor 488-Maleimide titrated with unlabeled NOP-1 (500 μM to 61.04 nM) in 50 mM Tris-HCl pH 8.0, 300 mM NaCl; Monolith NT.115, 20% MST power (LeETR4) or 60% (NR); triplicate; apparent Kd
[3] = target: T1, tomato ethylene receptor NR (NeverRipe) (tomato (Solanum lycopersicum), UniProt Q41341 1-635, labeled with Alexa Fluor 488-Maleimide); assay: as above; settings: both partners purified
T1 construct: Tomato ethylene receptor NR (NeverRipe), full-length codon optimized cDNA in pET16b; pET16b normally adds the deca-histidine tag and a factor Xa site at the N-terminus (surmised); Kept in 0.015% FosCholine-16; source: E. coli BL21 (DE3), solubilized with FosCholine-16, purified (HisTrap FF / Ni-NTA)
T1 sequence (looked up): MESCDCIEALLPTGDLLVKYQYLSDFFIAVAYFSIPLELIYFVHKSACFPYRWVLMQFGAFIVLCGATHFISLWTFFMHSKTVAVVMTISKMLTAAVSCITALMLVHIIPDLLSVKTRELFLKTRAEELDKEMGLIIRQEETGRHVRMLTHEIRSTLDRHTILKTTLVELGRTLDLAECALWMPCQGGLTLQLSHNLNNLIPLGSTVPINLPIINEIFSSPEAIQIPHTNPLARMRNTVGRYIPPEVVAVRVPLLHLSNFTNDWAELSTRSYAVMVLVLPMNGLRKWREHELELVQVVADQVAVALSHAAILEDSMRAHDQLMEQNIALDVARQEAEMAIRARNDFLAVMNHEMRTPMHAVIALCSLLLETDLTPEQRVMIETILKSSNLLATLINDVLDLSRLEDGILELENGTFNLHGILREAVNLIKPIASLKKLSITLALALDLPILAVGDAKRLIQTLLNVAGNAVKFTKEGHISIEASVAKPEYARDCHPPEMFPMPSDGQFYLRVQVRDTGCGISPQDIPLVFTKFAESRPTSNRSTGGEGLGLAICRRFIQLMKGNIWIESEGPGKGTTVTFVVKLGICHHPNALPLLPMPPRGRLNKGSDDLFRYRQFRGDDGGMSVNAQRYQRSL

Molecule: CC1=CC1 [1-MCP, 1-methylcyclopropene]
ripening, lycopene synthesis and chlorophyll breakdown (tomato fruits): significantly delay ripening and slow down lycopene synthesis and chlorophyll breakdown
drawbacks on fruit quality and maturation (tomato fruits): quality losses in taste development or to complete arrest in maturation

Molecule: NCCO/C=C/[C@H](N)C(=O)O [AVG, aminoethoxyvinylglycine]
ripening, lycopene synthesis and chlorophyll breakdown (tomato fruits): significantly delay ripening and slow down lycopene synthesis and chlorophyll breakdown
drawbacks on fruit quality and maturation (tomato fruits): quality losses in taste development or to complete arrest in maturation

effect on fruit quality [1]: no negative effects on fruit quality
Molecule: CC(C)C[C@H](NC(=O)[C@H](CCCNC(=N)N)NC(=O)[C@H](CCCNC(=N)N)NC(=O)[C@H](CCCCN)NC(=O)[C@H](Cc1ccc(O)cc1)NC(=O)[C@H](CCCNC(=N)N)NC(=O)[C@H](CCCCN)NC(=O)[C@@H](N)CC(C)C)C(=O)O [NOP-1]

Kd [2]: 4.15 µM
Kd [3]: 23.5 µM
B1: NOP-1 octapeptide (peptide)
peptide: LKRYKRRL
notes: Used unlabeled in MST; also called NLS-derived peptide; source: synthetic peptide (GenScript)
